According to US20050215614A1, “Substituted indoles and their use as hcv inhibitors” (Rigel Pharmaceuticals, Inc., priority 2003, published 2005):

Tested on: HCV replicon
Test: HCV Replicon Assay (luciferase, 5-2 Luc replicon cells)
Assay type: cell-based
Conditions: 5-2 Luc replicon cells (Huh7), 24-48 hours with compound, luciferase counts
Protocol: Actively dividing 5-2 Luc replicon cells were seeded at the density of 5000-7500 cells/well in the volume of 90 μl/well into 96 well plate(s). The cells were then incubated at 37° C. and 5% CO2 for 24 hours. The 5-2 cells are replicon cells licensed from Ralf Bartenschlager (Germany) and have a self-replicating RNA molecule in the Huh7 cell; the RNA contains HCV non-structural proteins that make the self-replication possible.
Various concentrations of compounds (in the volume of 10 μl) were added into each well 24 hours after seeding the cells. The cells were incubated for another 24-48 hours before luciferase assay.
After incubating the 5-2 Luc replicon cells with the compounds for 24-48 hours, media were aspirated from each well and Bright-Glo (Promega) luciferase assay reagents were added to each well according to the manufacturer′s manual. Briefly, the Bright-Glo reagent was diluted with equal volume of PBS and an aliquote (100 μl) was added to each well. After incubating the plate at room temperature for 5 minutes, luciferase counts were taken using a luminometer.

SMILES	Activity (concentration of inhibitory activity)
CCCCC(=O)Nc1ccc2c(c1)cc(C)n2C(=O)c1c(Cl)cccc1Cl [Compound 16a-7, 1-(2′,6′-Dichlorobenzoyl)-5-(n-pentanoyl)amino-2-methylindole]	a (“a” indicates inhibitory activity at a concentration of less than 10 micromolar)
C/C=C/C(=O)Nc1ccc2c(c1)cc(C)n2C(=O)c1c(Cl)cccc1Cl [Compound 16a-8, 5-(trans-Crotonyl)amino-1-(2′,6′-dichlorobenzoyl)-2-methylindole]	a (“a” indicates inhibitory activity at a concentration of less than 10 micromolar)
CCC(CC)C(=O)Nc1ccc2c(c1)cc(C)n2C(=O)c1c(Cl)cccc1Cl [Compound 16a-9, 1-(2′,6′-Dichlorobenzoyl)-5-(2-ethylbutanoyl)amino-2-methylindole]	a (“a” indicates inhibitory activity at a concentration of less than 10 micromolar)
Cc1cc2cc(NC(=O)c3cccnc3)ccc2n1C(=O)c1c(Cl)cccc1Cl [Compound 16a-10, 1-(2′,6′-Dichlorobenzoyl)-5-(3-pyridylcarbonyl)amino-2-methylindole]	a (“a” indicates inhibitory activity at a concentration of less than 10 micromolar)
Cc1ccsc1C(=O)Nc1ccc2c(c1)cc(C)n2C(=O)c1c(Cl)cccc1Cl [Compound 16a-11, 1-(2′,6′-Dichlorobenzoyl)-5-(3-methyl-2-thiophenylcarbonyl)amino-2-methylindole]	a (“a” indicates inhibitory activity at a concentration of less than 10 micromolar)
COc1cscc1C(=O)Nc1ccc2c(c1)cc(C)n2C(=O)c1c(Cl)cccc1Cl [Compound 16a-12, 1-(2′,6′-Dichlorobenzoyl)-5-(4-methoxy-3-thiophenylcarbonyl)amino-2-methylindole]	a (“a” indicates inhibitory activity at a concentration of less than 10 micromolar)
Cc1cc2cc(NC(=O)Cc3cccnc3)ccc2n1C(=O)c1c(Cl)cccc1Cl [Compound 16a-13, 1-(2′,6′-Dichlorobenzoyl)-5-(3-pyridyl-2-acetamido)-2-methylindole]	a (“a” indicates inhibitory activity at a concentration of less than 10 micromolar)
Cc1cc2cc(NC(=O)C3CCC(=O)C3)ccc2n1C(=O)c1c(Cl)cccc1Cl (centres unmarked) [Compound 16a-14]	a (“a” indicates inhibitory activity at a concentration of less than 10 micromolar)
COc1cccc(OC)c1C(=O)n1c(C)cc2cc(NC(=O)C3CC3)ccc21 [Compound 16b4, 5-Cyclopropanecarbonylamino-1-(2′,6′-dimethoxybenzoyl)-2-methylindole]	a (“a” indicates inhibitory activity at a concentration of less than 10 micromolar)
COc1cccc(OC)c1C(=O)n1c(C)cc2cc(NC(=O)C3CCCC3)ccc21 [Compound 16b-1, 5-Cyclopentanecarbonylamino-1-(2′,6′-dimethoxybenzoyl)-2-methylindole]	a (“a” indicates inhibitory activity at a concentration of less than 10 micromolar)
COc1cccc(OC)c1C(=O)n1c(C)cc2cc(NC(=O)C3CCCCC3)ccc21 [Compound 16b-2, 5-Cyclohexanecarbonylamino-1 (2′,6′-dimethoxybenzoyl)-2-methylindole]	a (“a” indicates inhibitory activity at a concentration of less than 10 micromolar)
COc1cccc(OC)c1C(=O)n1c(C)cc2cc(NC(=O)C3CCC3)ccc21 [Compound 16b-3, 5-Cyclobutanecarbonylamino-1-(2′,6′-dimethoxybenzoyl)-2-methylindole]	a (“a” indicates inhibitory activity at a concentration of less than 10 micromolar)
COc1cccc(OC)c1C(=O)n1c(C)cc2cc(NC(=O)c3cccnc3)ccc21 [Compound 16b-5, 1-(2′,6′-Dimethoxybenzoyl)-5-(3-pyridylcarbonyl)amino-2-methylindole]	a (“a” indicates inhibitory activity at a concentration of less than 10 micromolar)
COc1cccc(OC)c1C(=O)n1c(C)cc2cc(NC(=O)C3CCC(=O)C3)ccc21 (centres unmarked) [Compound 16b-6, 1-(2′,6′-Dimethoxybenzoyl)-5-(3-oxo-1-cyclopentanecarbonyl)amino-2-methylindole]	a (“a” indicates inhibitory activity at a concentration of less than 10 micromolar)
Cc1cc2cc(NC(=O)C3CCCC3)ccc2n1C(=O)c1c(F)cccc1C(F)(F)F [Compound 16c-1, 5-Cyclopentanecarbonylamino-1-(2′-fluoro-6′-trifluoromethylbenzoyl)-2-methylindole]	a (“a” indicates inhibitory activity at a concentration of less than 10 micromolar)
Cc1cc2cc(NC(=O)C3CCCCC3)ccc2n1C(=O)c1c(F)cccc1C(F)(F)F [Compound 16c-2, 5-Cyclohexanecarbonylamino-1-(2′-fluoro-6′-trifluoromethylbenzoyl)-2-methylindole]	a (“a” indicates inhibitory activity at a concentration of less than 10 micromolar)
Cc1cc2cc(NC(=O)C3CCC3)ccc2n1C(=O)c1c(F)cccc1C(F)(F)F [Compound 16c-3, 5-Cyclobutanecarbonylamino-1-(2′-fluoro-6′-trifluoromethylbenzoyl)-2-methylindole]	a (“a” indicates inhibitory activity at a concentration of less than 10 micromolar)
Cc1cc2cc(NC(=O)C3CC3)ccc2n1C(=O)c1c(F)cccc1C(F)(F)F [Compound 16c-4, 5-Cyclopropanecarbonylamino-1-(2′fluoro-6′-trifluoromethylbenzoyl)-2-methylindole]	a (“a” indicates inhibitory activity at a concentration of less than 10 micromolar)
Cc1cc2cc(NC(=O)C3CCC(=O)C3)ccc2n1C(=O)c1c(F)cccc1C(F)(F)F (centres unmarked) [Compound 16c-5, 1-(2′-Fluoro-6′-trifluoromethylbenzoyl)-5-(3-oxo-1-cyclopentanecarbonyl)amino-2-methylindole]	a (“a” indicates inhibitory activity at a concentration of less than 10 micromolar)
Cc1cc2cc(NC(=O)C3CCCC3)ccc2n1C(=O)c1c(F)cccc1F [Compound 16d-1, 5-Cyclopentanecarbonylamino-1-(2′,6′-difluorobenzoyl)-2-methylindole]	b (“b” indicates activity is at a concentration greater than 10 micromolar)
Cc1cc2cc(NC(=O)C3CCC3)ccc2n1C(=O)c1c(F)cccc1F [Compound 16d-2, 5-Cyclobutanecarbonylamino-1-(2′,6′-difluorobenzoyl)-2-methylindole]	b (“b” indicates activity is at a concentration greater than 10 micromolar)
Cc1cc2cc(NC(=O)C3CC3)ccc2n1C(=O)c1c(F)cccc1F [Compound 16d-3, 5-Cyclopropanecarbonylamino-1-(2′,6′-difluorobenzoyl)-2-methylindole]	b (“b” indicates activity is at a concentration greater than 10 micromolar)
Cc1cc2cc(NC(=O)C3CCCC3)ccc2n1C(=O)c1c(F)cccc1Cl [Compound 16e-1, 1-(2′-Chloro-6′-fluorobenzoyl)-5-cyclopentanecarbonylamino-2-methylindole]	a (“a” indicates inhibitory activity at a concentration of less than 10 micromolar)
